Test results: patent US20110105380A1, “Protection of Nano-Scale Particles from Immune Cell Uptake” (THE TRUSTEES OF THE UNIVERSITY OF PENNSYLVANIA, priority 2009, published 2011)
Several values for one entry are separate records, joined by “and”; a condition that tells them apart may be missing. Identical values can stand only once. Marks after values point to notes of the source that are not given here.

Experiments:
[1] = tested on: THP-1 macrophages; experiment: SHP-1 inhibitor effect on phagocytosis of IgG-opsonized particles by THP-1 macrophages; type: cell-based, human
Experimental: FIG. 16, comprising FIG. 16A-16D, illustrates CD47-SIRPα signaling pathway from SHP-1 to myosin. Phagocytosis of IgG-opsonized particles with or without human CD47 of 100 nm particles (FIG. 16A) and 1.1 μm particles (FIG. 16B) were treated with an SHP-1 inhibitor (NSC-87877) at 62.5 nM and its effects were determined by the ratio of ingested particles per THP-1 phagocyte. The number of particles ingested was shown based on 200 phagocytes counted (n≧3, ±SD). The inset depicts the concentration dependence of NSC-87877 effect on particle uptake. Treatment of blebbistatin in THP-1 macrophages during phagocytosis of IgG-opsonized 100 nm particles (FIG. 16C) and 1.1 μm particles (FIG. 16D) depict inhibition of phagocytosis.
For phagocytosis assays with CD47 attached particles at 100 nm to 1.1 μm diameter were IgG-opsonized. THP-1 macrophage, PMA activated were treated with 0-0.5 μM NSC-87877 an SHP-1 Inhibitor (gift from Frank L. Conlon) 5 minutes prior to the addition of IgG-opsonized particles. Phagocytosis assay occurred at 37° C. for 45 minutes and then fixed for 5 minutes with 5% formaldehyde as described for the phagocytosis assay (Fisher Scientific).
To confirm the correlation between CD47 affect on inhibiting phagocytosis of both nano and micro sized particles, blocked SHP-1 should result in nullifying the CD47 signal. In order to specifically block SHP-1, an inhibitor NSC-87877 was used with a reported high specificity to SHP-1 (Chen et al., 2006, Mol. Pharmacol. 70(2):562-70; Langdon et al., 2007, Development 134(22):4119-30). […] The uptake of these particles was measured as the number of particles ingested per phagocyte.

[2] = target: SHP-1 (Homo sapiens, UniProt P29350); settings: Chen et al., 2006; read-out: reported IC50 for SHP-1; cited from earlier work
Chain of SHP-1 (P29350 whole entry): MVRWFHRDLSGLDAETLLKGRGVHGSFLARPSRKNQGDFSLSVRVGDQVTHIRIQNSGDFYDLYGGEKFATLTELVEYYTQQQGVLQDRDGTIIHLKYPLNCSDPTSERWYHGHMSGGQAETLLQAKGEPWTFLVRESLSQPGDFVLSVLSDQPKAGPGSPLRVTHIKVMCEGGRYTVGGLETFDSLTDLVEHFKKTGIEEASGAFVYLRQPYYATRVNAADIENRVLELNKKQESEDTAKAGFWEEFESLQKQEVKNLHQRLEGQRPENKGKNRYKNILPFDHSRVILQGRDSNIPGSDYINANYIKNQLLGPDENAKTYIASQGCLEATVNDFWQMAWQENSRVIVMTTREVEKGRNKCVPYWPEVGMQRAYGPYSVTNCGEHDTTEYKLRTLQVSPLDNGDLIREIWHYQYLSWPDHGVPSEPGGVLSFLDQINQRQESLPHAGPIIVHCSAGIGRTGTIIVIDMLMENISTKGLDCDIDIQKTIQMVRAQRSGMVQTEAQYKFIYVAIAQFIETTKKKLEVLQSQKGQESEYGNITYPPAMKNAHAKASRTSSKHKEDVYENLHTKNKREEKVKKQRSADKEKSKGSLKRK

[3] = tested on: human peripheral blood monocytes; experiment: Phagocytosis of hCD47 beads by human peripheral blood monocytes; type: cell-based; settings: FIG. 6D
Experimental: FIG. 6, comprising […], illustrates that human-CD47 is sufficient to inhibit phagocytosis. FIG. 6A depicts streptavidin beads coated with both anti-streptavidin IgG as the opsonin and biotinylated human-CD47. Phagocytosis of beads by THP-1 cells was assessed in DIC and fluorescence with non-ingested beads visible with rabbit anti-streptavidin plus a second, goat anti-rabbit antibody. The scale bars are 10 μm. […] Inset bar graph compares to inhibited phagocytosis of uncoated beads after 10 min pretreatment of THP-1 cells with blebbistatin (50 μM). FIG. 6C depicts inhibition of phagocytosis depends on density of human-CD47 on beads. FIG. 6D depicts a bar graph comparing hCD47 inhibition of phagocytosis in peripheral blood monocytes.
The extracellular immunoglobulin-like domains of human CD47 (hCD47) was recombinantly expressed with a spacer domain (Brown et al., 1994, Protein Eng. 7:515-21; Brown et al., 1998, J. Exp. Med. 188:2083-90) plus a C-terminal biotinylation site. […] The beads were opsonized by pretreatment with anti-streptavidin to again induce FcR-mediated phagocytosis (for 45 minutes at 37° C.), and non-engulfed beads were detected with a flourescein anti-Fc against the IgG-opsonin. The number of adherent IgG-opsonized beads per phagocyte was independent of hCD47 (not shown). […]

[4] = target: THP-1 macrophages; experiment: Phagocytosis of IgG-opsonized streptavidin beads with or without hCD47 by THP-1 macrophages; type: cell-based, human; settings: particle radius 3.4 μm
[5] = target: THP-1 macrophages; experiment: as above; type: cell-based, human; settings: for Ki (minimum hCD47 density to inhibit uptake): IgG-opsonized
Experimental: The extracellular immunoglobulin-like domains of human CD47 (hCD47) was recombinantly expressed with a spacer domain (Brown et al., 1994, Protein Eng. 7:515-21; Brown et al., 1998, J. Exp. Med. 188:2083-90) plus a C-terminal biotinylation site. […] The beads were opsonized by pretreatment with anti-streptavidin to again induce FcR-mediated phagocytosis (for 45 minutes at 37° C.), and non-engulfed beads were detected with a flourescein anti-Fc against the IgG-opsonin. The number of adherent IgG-opsonized beads per phagocyte was independent of hCD47 (not shown).
For phagocytosis assays, macrophages were plated in 4 cm^2, or 2 cm^2 Lab-Tek II Chambered Coverglass (Nalge Nunc International, Naperville, Ill.) at 1.5×10^5/cm^2. Streptavidin polystyrene beads of different radius: 3.5 μm, 1.1 μm, 160 nm (Spherotech) and 100 nm (Ademtech) were added to macrophages at a ratio of 2:1, 20:1, 277:1, and 2206:1 respectively and incubate at 37° C. for 45 min. […] Non-phagocytosed beads were washed with PBS. Cells were fixed with 5% formaldehyde (Fisher Scientific) for 5 minutes, followed by immediate replacement with PBS. For differentiation of non-internalized beads, beads were labeled with a primary antibody, rabbit anti-streptavidin (Sigma) at 1:1000 in PBS for 20 min at 25° C. A second antibody, anti-rabbit R-PE (Sigma) was added at 1:1000 in PBS to the cells and incubated for an additional 20 minutes at 25° C. Cells were then washed with PBS/0.4% BSA and then quantified by light and fluorescent microscopy. At least 200 cells were scored per well and experiments were repeated at least three times.
For stimulated phagocytosis assays, beads with or without CD47 were incubated with rabbit anti-streptavidin as the IgG opsonin. Beads were opsonized at a concentration 1:1000 for 30 min at 25° C. Opsonized beads were washed 2× and resuspended in 50 μl of PBS/0.4% BSA. Phagocytes were washed with PBS and uningested beads were labeled as described above.
For cytoskeletal involvement at the phagocytic synapse, streptavidin beads opsonized with rabbit anti-streptavidin FITC. Opsonized beads of different sizes were added to THP-1 cells, PMA treated and immediately placed at 4° C. for 10 min to synchronize phagocytosis. […] For studies involving blebbistatin (EMD Biosciences), macrophages were treated for 10 min at 4° C. prior to temperature increase to 37° C. or for 45 min and 37° C. Macrophages treated with DMSO were used to verify no solvent effects.
Beads were opsonized at saturating densities of IgG, and over a 20-fold range of CD47 densities, the number of internalized beads per THP-1 was measured. […] The normal level of CD47 density found on human RBC (Subramanian et al., 2006, Blood 107(6):2548-2556) was indicated by the vertical bars and humans with certain Rhnull phenotypes with reduced levels of CD47 (Mouro-Chanteloup et al., 2003, Blood 101 (1):338-344; Arndt et al., 2004, Br. J. Haematol. 125(3):412-4) was indicated by the vertical bars. The minimum number of CD47 inhibition appears to be consistent across a 30-fold particle size range as depicted by the vertical bars.

[6] = target: human CD47 on human red blood cells (human) (UniProt Q08722); experiment: cell-based or functional assay
Chain of human CD47 on human red blood cells (human) (Q08722 other isoform, or with tags, fused parts or gaps limits assumed): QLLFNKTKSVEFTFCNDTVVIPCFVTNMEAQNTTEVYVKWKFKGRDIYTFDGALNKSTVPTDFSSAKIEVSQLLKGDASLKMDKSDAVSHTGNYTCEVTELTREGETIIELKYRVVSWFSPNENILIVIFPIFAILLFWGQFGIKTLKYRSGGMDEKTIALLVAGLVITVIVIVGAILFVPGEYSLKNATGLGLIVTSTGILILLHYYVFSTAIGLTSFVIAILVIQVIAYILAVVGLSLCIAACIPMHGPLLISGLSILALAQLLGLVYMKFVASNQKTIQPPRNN

[7] = 100 nm particles, NSC-87877 62.5 nM

## O=S(=O)(O)c1ccc2cc(N=Nc3cc(S(=O)(=O)O)c4cccnc4c3O)ccc2c1 [NSC-87877]
[1]; [7]
  particles ingested per phagocyte, beads without hCD47: no statistical difference
  particles ingested per phagocyte, hCD47 particles: an increase of ingested particles
[1]; NSC-87877, FIG. 16B
  uptake of 1.1 μm particles coated with hCD47: increase in uptake comparable to uncoated IgG-opsonized particles
[2]
  IC50: 500 nM

## hCD47: extracellular immunoglobulin-like domains of human CD47 recombinantly expressed with a spacer domain plus C-terminal biotinylation site, attached to streptavidin-coated beads
[3]
  phagocytosis of beads bearing high densities of hCD47: similarly potent reduction in phagocytosis
[4]
  Ki (minimum hCD47 density to inhibit uptake): 27.6 molecules/μm^2
[5]; all particle sizes tested, micro to nano-meter beads (100 nm to 3.5 μm)
  effective Ki of phagocytosis inhibition: approximately 20 molecules/μm^2
[5]; all particle sizes tested, micro to nano-meter beads (100 nm to 3.5 μm), listed as human CD47
  effective Ki of phagocytosis inhibition: ~20 molecules/μm^2
[5]; approximately 2.1 μm beads, FIG. 6C
  effective Ki of phagocytosis inhibition: ≈ 20 molecules/μm^2
[5]; beads opsonized at saturating densities of IgG
  Ki at high opsonin: 20 CD47/μm^2
[5]; particle radius 1.1 μm
  Ki (minimum hCD47 density to inhibit uptake): 20* molecules/μm^2
[5]; particle radius 100 nm
  Ki (minimum hCD47 density to inhibit uptake): 19.9 molecules/μm^2
[5]; particle radius 160 nm
  Ki (minimum hCD47 density to inhibit uptake): 13.6 molecules/μm^2
[5]; relative to normal human RBC density
  fraction of normal CD47 densities sufficient to inhibit phagocytosis: 10-20%

## anti-CD47 F(ab')2 generated from monoclonal antibody B6H12
[6]
  phagocytosis of IgG-opsonized human RBCs by human phagocytes after CD47 blocking: 2 fold and 3 fold
